# Legend:
# [1] = target: T1, cytokinin receptor AHK2 Δ (transformed cell TM182-AHK2 Δ) (Arabidopsis thaliana, UniProt Q9C5U2); experiment: Searching agonist-activity to cytokinin receptor (Part 1), optical density of liquid culture; assay type: cell-based; design: one added initiator methionine (ATG added 5' of codon 196) (N); expressed in transfected cells; host or cells: Saccharomyces cerevisiae TM182 (sln1 deletion), plasmid p415CYC-AHK2 Δ; details: examinee substance 100 μM final concentration, DOLU+Gul medium, 30° C., 24 hours; DMSO blank 0
# T1 sequence (Q9C5U2 196-1176): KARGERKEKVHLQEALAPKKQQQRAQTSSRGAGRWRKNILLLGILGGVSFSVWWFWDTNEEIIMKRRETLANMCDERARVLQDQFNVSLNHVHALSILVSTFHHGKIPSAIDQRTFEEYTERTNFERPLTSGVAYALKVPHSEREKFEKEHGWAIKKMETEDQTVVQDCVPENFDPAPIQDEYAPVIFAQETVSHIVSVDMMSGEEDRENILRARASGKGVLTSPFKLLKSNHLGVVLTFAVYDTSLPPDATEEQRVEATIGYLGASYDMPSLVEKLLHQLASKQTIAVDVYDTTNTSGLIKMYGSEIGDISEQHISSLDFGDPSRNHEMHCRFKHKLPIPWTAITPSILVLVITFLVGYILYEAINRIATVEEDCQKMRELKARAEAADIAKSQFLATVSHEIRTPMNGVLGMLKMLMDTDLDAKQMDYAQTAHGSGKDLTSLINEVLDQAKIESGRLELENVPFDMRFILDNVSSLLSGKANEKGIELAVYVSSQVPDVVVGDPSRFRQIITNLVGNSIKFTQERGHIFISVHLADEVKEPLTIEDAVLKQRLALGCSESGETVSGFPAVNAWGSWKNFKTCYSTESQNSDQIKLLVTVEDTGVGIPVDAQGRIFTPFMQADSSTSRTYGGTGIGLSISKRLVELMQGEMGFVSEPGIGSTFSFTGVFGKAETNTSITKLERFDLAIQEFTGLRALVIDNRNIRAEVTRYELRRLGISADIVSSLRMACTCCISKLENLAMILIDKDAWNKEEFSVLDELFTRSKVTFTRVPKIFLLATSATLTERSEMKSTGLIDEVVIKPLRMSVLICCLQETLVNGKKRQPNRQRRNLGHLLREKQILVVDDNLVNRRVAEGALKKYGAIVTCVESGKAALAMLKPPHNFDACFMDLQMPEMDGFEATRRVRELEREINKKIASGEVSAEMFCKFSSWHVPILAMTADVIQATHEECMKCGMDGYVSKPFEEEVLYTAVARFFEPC
# Method: The transformed cells TM182-CRE1, TM182-AHK2, TM182-AHK2 Δ and TM182-AHK3 produced in the example 12 were inoculated in 200 ml of DOLU+Gal culture media and pre-cultured at 30° C. for 36 hours. The pre-cultured solutions were diluted with DOLU+Gul media as to become 0.100 as the optical density (0D600) and further the resultants were diluted with DOLU+Gul media at a dilution rate of 1/200 to obtain diluted pre-cultured solutions.
# An assay plate was prepared by filling respective wells of a 96-well plate with 20 μl of solutions which were prepared by diluting DMSO solution (10 mM) of each examinee substance with DOLU+Gul medium at a dilution rate of 1/100, said solutions containing each examinee substance to be 100 μM at the final concentration. […]
# The diluted pre-cultured solutions were added in 200 μl each into the respective wells of both assay plates and cultured at 30° C. for 24 hours and then the optical density (0D620) of each well was measured by a plate reader. The agonist-activity of the examinee substances to the cytokinin receptor was detected by comparing the optical density measured in the testing sections to which the examinee substances were added with the optical density measured in the blank sections.
# [2] = target: T1, cytokinin receptor AHK2 Δ (transformed cell TM182-AHK2 Δ); details: DOLU+Gul agar, concentrations 1 nM to 100 μM, 30° C., 30 hours
# Method: (§1) After incubation, the growth state of the transformed cells was observed and photographed by a digital camera.
# (§2) The lowest supply concentrations of trans-zeatin and cis-zeatin in which the respective transformed cells could be grown were shown in Table 1.
# [3] = target: T2, cytokinin receptor CRE1 (transformed cell TM182-CRE1) (Arabidopsis thaliana, UniProt Q9C5U0, S567G/T1018A); details: DOLU+Gul agar, concentrations 1 nM to 100 μM, 30° C., 30 hours
# Method: as §1, §2
# [4] = target: T3, cytokinin receptor AHK2 (transformed cell TM182-AHK2) (Arabidopsis thaliana, UniProt Q9C5U2); details: DOLU+Gul agar containing 10 μM trans-zeatin, 30° C., 30 hours; compared with media containing no trans-zeatin
# T3 sequence (Q9C5U2 1-1176): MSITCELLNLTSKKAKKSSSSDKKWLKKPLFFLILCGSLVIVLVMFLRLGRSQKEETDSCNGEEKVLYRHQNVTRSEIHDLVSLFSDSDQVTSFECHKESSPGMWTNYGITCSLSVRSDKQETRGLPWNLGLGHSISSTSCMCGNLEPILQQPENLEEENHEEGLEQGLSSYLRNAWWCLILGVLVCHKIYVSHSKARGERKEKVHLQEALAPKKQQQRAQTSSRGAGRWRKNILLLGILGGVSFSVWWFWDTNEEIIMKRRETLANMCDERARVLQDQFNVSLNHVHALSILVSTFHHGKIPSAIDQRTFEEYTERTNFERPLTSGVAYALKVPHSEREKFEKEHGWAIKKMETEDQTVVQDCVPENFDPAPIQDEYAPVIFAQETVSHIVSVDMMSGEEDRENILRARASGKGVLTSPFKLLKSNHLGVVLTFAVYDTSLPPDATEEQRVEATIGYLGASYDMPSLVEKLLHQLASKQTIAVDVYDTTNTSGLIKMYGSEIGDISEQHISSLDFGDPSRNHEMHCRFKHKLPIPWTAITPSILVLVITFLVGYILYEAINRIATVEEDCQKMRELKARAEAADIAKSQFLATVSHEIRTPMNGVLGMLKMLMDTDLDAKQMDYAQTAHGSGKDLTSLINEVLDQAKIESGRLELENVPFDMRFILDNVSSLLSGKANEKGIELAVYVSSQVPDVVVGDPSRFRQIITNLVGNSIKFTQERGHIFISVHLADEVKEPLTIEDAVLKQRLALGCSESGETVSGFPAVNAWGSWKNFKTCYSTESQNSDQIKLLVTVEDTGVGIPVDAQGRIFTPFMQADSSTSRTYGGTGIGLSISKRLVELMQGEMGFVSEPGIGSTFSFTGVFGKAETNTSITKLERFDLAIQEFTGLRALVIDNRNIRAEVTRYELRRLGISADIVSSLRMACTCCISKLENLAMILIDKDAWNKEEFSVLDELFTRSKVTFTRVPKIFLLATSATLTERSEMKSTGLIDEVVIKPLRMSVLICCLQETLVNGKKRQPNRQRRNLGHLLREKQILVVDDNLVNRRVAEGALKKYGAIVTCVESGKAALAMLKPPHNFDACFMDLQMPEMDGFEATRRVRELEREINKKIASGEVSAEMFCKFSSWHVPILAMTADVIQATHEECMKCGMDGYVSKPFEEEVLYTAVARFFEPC
# Method: (§3) Transformation of TM182 (S1n1 Δ), S1n1 genetically detected strain, [Maeda T et al. Nature: 369 242-245 (1994)] was carried out using the obtained expression plasmid p415CYC-CRE1 (the example 5), p415CYC-AHK2 (the example 11), p415CYC-AHK2Δ (the example 11) and p415CYC-AHK3 (the example 8). The transformation was carried out by employing Polyethylene glycol/lithium acetate (PEG/LiAc)-mediated transformation method according to the description of VII. Library Transformation & Screening Protocols disclosed in […] Two-Hybrid System 3 User Manual p.
# as §1
# [5] = target: T4, cytokinin receptor AHK3 (transformed cell TM182-AHK3) (Arabidopsis thaliana, UniProt Q9C5U1); details: DOLU+Gul agar containing 10 μM trans-zeatin, 30° C., 30 hours; compared with media containing no trans-zeatin
# T4 sequence (Q9C5U1 1-1036): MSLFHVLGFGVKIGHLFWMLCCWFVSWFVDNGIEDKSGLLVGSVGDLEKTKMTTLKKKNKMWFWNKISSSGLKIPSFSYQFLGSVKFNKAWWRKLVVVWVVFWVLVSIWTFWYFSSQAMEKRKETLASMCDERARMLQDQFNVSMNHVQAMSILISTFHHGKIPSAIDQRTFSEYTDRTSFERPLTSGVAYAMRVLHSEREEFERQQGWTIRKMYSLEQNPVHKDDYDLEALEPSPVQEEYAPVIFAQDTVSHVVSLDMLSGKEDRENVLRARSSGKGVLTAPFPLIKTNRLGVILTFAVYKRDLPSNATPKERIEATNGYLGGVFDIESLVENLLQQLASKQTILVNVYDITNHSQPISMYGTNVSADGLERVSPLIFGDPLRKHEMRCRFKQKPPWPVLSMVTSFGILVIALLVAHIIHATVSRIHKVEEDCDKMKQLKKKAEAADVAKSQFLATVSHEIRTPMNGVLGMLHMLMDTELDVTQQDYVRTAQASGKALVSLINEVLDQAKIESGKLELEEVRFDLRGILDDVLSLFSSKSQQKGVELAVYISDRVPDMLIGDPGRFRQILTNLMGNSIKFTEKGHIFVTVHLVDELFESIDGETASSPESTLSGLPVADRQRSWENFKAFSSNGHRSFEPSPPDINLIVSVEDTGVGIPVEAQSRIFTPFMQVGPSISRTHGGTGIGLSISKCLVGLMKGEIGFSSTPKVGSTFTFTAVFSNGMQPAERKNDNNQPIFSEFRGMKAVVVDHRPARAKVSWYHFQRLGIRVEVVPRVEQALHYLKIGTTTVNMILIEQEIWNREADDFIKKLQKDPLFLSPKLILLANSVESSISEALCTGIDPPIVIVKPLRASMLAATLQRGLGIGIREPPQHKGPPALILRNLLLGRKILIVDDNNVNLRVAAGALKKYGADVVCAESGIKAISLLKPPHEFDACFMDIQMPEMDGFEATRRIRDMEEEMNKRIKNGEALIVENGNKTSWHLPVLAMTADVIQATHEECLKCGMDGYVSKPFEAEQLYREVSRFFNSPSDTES
# Method: as §3, §1
# [6] = target: T1, cytokinin receptor AHK2 Δ (transformed cell TM182-AHK2 Δ); details: DOLU+Gul agar containing 10 μM trans-zeatin, 30° C., 30 hours; compared with media containing no trans-zeatin
# Method: as §3, §1
# [7] = target: T2, cytokinin receptor CRE1 (transformed cell TM182-CRE1); details: DOLU+Gul agar containing 10 μM trans-zeatin, 30° C., 30 hours; compared with media containing no trans-zeatin
# Method: as §3, §1
# [8] = target: T3, cytokinin receptor AHK2 (transformed cell TM182-AHK2); details: DOLU+Gul agar, concentrations 1 nM to 100 μM, 30° C., 30 hours
# Method: as §1, §2
# T2 sequence (Q9C5U0 24-1080 S567G/T1018A): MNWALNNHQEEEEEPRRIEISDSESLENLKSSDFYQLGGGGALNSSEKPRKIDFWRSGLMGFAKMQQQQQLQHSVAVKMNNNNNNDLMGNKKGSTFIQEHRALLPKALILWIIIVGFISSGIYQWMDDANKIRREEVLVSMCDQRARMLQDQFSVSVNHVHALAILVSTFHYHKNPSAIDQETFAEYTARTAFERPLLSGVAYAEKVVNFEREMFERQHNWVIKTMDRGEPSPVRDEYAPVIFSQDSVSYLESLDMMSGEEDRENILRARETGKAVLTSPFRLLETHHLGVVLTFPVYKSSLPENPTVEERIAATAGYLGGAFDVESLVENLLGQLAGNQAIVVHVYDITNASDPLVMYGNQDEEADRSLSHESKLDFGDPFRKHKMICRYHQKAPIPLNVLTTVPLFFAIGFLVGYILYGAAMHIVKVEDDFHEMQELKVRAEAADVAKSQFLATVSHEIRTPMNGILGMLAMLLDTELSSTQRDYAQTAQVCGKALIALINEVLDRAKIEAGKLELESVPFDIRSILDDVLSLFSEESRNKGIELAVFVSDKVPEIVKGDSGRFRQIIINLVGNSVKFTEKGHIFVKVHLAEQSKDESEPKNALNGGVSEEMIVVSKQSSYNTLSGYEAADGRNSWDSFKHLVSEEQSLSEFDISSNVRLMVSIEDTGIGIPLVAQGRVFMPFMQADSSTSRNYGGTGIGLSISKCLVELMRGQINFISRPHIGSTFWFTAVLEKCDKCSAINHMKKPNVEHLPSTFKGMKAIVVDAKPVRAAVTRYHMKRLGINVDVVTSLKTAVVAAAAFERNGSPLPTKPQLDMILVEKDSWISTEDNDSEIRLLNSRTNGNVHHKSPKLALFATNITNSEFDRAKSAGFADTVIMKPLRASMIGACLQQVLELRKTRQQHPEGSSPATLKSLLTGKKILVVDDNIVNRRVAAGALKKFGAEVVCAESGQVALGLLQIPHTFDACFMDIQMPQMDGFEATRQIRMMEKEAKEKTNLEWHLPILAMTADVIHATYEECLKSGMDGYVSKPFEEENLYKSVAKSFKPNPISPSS
compound,measurement,setting,value
"CC1=CC(=O)CC(C)(C)[C@@]1(O)/C=C/C(C)=C\C(=O)O [Compound A, Abscisic acid]","optical density (OD620) of the culture solution, TM182-AHK2 Δ",[1],0
C/C(=C/CNc1ncnc2nc[nH]c12)CO [cis-zeatin],"lowest supply concentration in which the transformed cells could be grown, TM182-AHK2 A",[2],1 µM
same,"lowest supply concentration in which the transformed cells could be grown, TM182-CRE1",[3],no growth
C/C(=C\CNc1ncnc2nc[nH]c12)CO [trans-zeatin],growth state of transformed cells TM182-AHK2,[4],high growth
same,growth state of transformed cells TM182-AHK3,[5],high growth
same,growth state of transformed cells TM182-AHK2 Δ,[6],high growth
same,growth state of transformed cells TM182-CRE1,[7],high growth
same,"lowest supply concentration in which the transformed cells could be grown, TM182-AHK2",[8],1 µM

# Reference: patent US20120122181A1, “METHOD FOR DETERMINING ANTAGONIST ACTIVITY TO A CYTOKININ RECEPTOR” (SUMITOMO CHEMICAL COMPANY, LIMITED, priority 2001, published 2012)
